According to patent US20260092085A1, “SYNTHETIC TRIPLEX PEPTIDE NUCLEIC ACID-BASED INHIBITORS FOR CANCER THERAPY” (University of Connecticut, priority 2022, published 2026):

Columns and labels:
miR-155 = miR-155 gene expression by RT-PCR in SUDHL-2 cells; assay type: cell-based; settings: SUDHL-2, 500 nM, 48 hours
Experimental: Data represented as mean±standard error mean (SEM). Unpaired two-tailed t-test was used for statistical analysis, **p<0.01. The analysis was performed relative to Scr-γtcPNA-155.
(§1) Similarly, 400,000 SUDHL-2 cells were seeded in a 12 well plate and treated with 500 nM Scr gamma tcPNA-155, PNA-155 and gamma tcPNA-155 for 48 hrs in an incubator (37° C. and 5% CO2). The RNA was extracted and the samples for gene expression were prepared in the same manner as described above.

[1] = tested on: miR-155 associated tumor suppressor genes; assay: Gene expression of miR-155 downstream tumor suppressor genes in SUDHL-2 cells; assay type: cell-based; settings: SUDHL-2, in comparison to Scr-γtcPNA-155 and PNA-155
Experimental: Data is normalized with average GAPDH control (n=3), and represented as mean±SEM, **p<0.01. Unpaired two tailed t-test was used for statistical analysis and the analysis was performed relative to Scr-gtcPNA-155.
as §1

U2932 tumors = assay: Immunostaining of Caspase-3 and Ki67 in treated U2932 tumors; assay type: in vivo, NSG mice; settings: U2932 xenograft
Experimental: FIGS. 17A-D show in vivo studies in U2932 derived xenograft model. (17A) Biodistribution of γtcPNA-155 TAMRA in tumor sections (17B) Tumor volume fold change (n=6, data represented as mean±standard error mean (SEM), *p<0.05, **p<0.01, multiple t-tests one per row was used for statistical analysis). Asterisk denotes the analysis was performed relative to Scr-γtcPNA-155. Diamond symbol denotes the analysis was performed relative to PNA-155. (17C) Representative images showing the effects of Scr-γtcPNA-155, PNA-155, γPNA-155 and γtcPNA-155 on Caspase-3 immunostaining of tumor (magnification; ×20). Autofluorescence (AF) at 514 nm was used to show the tumor. Scale bar=[…]. (17D) Caspase-3 immunostaining quantification, *p<0.05. n=15. The n indicates the number of images.
FIGS. 21A-B show Ki-67 immunostaining (21A) and quantification (21B) in the in vivo treated tumors (n=15), **p<0.01. The n indicates the number of images. Scale bar=50 μm.
Histopathology and immunohistochemistry; The mice were sacrificed by CO2 inhalation when tumor volume reached 2000 mm^3. The tumor and vital organs (e.g., liver, kidney, spleen, lungs, heart) were carefully isolated, weighed, and fixed in the 10% NBF solution. The sections ([…]) of formalin-fixed paraffin-embedded liver and kidney were stained by hematoxylin and eosin for the histological analysis. […]

miR-155 downstream genes = assay: Downstream gene expression and protein levels in U2932 tumor samples; assay type: in vivo, NSG mice; settings: U2932 xenograft
Experimental: FIGS. 22A-D show in vivo gene expression and protein level analysis. (22A) miR-155 gene expression levels in U2932 tumor samples after in vivo treatment with indicated PNAs. Data was normalized with average control U6 (n=4, data represented as mean±standard error mean). ***p<0.001 (22B) Gene expression level of downstream target genes of miR-155: MCL1 in U2932 tumor samples after treatment with total 3 mg kg-1 dose of Scr-γtcPNA-155, PNA-155, γPNA-155 and γtcPNA-155 and normalized with average control GAPDH (n=3, data represented as mean±SEM), unpaired two-tailed t-test was performed for analysis). *p<0.05, **p<0.01 (22C) Representative western blot of Mcl-1 protein and its quantification (n=3 technical replicate) in U2932 tumor samples treated with total 3 mg kg-1 dose of Scr-γtcPNA-155, PNA-155 and γtcPNA-155. Data is represented as mean±SEM and unpaired two-tailed t-test was performed for analysis. *p<0.05. The relative protein levels were determined from the band intensity using ImageJ software and normalized relative to loading control and treatment control. (22D) Gene expression level of tumor suppressor proteins (FOXO3A, CUX1, SOCS1, CSF1R, JARID2, SHIP1, PICALM, PDCD4, BACH1, CASP3) in U2932 tumor samples after treatment with total 3 mg kg-1 dose of Scr-γtcPNA-155, PNA-155, γPNA-155 and γtcPNA-155 and normalized with average control GAPDH (n=3, data represented as mean±SEM, unpaired two-tailed t-test was performed for statistical analysis). *p<0.05, **p<0.01.
Data is represented as mean±SEM and unpaired t-test was used for statistical analysis *p<0.05. The relative protein levels were determined from the band intensity using ImageJ software and normalized relative to loading control and treatment control.
Data is represented as mean±SEM and unpaired t-test was used for statistical analysis.
Data is represented as mean±SEM and unpaired t-test was used for statistical analysis. The relative protein levels were determined from the band intensity using ImageJ software and normalized relative to loading control and treatment control.
RNA and Protein extraction from tumor samples: The mice were injected intra-tumorally with 1 mg kg-1 dose of PNA-155, γtcPNA-155, γPNA-155, Scr-γtcPNA-155 or were untreated. The injections were repeated two additional times after 1 week each. The length, breadth, and depth of the tumors were measured daily using a vernier caliper. The mice were euthanized when the tumor volumes reached 2000 mm^3. The resected tumor sections were finely minced using a sterile blade and suspended in dissociation media (4 ml) comprising of RPMI-1640, 1.2 mg/ml dispase, and 0.5 mg/ml collagenase for 90 mins at 500 rpm at 37° C. The dissociated tumors were washed with buffer saline at 2500 rpm (4 mins) at 4° C. and then suspended in 0.25% trypsin for 4 mins at room temperature. RPMI 1640 media was added to the trypsinized tumor mass, and the cells were passed through a 70 um filter. The cells were centrifuged at 2500 rpm for 4 mins at 4° C. The cell pellet was then suspended in 1×RBC lysis buffer (Sigma) and incubated on ice for 10 mins. PBS was added to the cells and the cells were passed through a 40 um filter. The cells were centrifuged at 2500 rpm for 4 mins at 4° C. The cell pellet was resuspended in 0.5% BSA in PBS. The mouse cells were removed from the tumor cells using a mouse cell depletion kit (Miltenyi Biotec) according to the manufacturer's protocol. The enriched tumor cells from each tumor sample were divided into two fractions. RNA for gene expression analysis was extracted from one tumor fraction by the same procedure as mentioned earlier. The protein for western blot analysis was extracted from the second fraction using the method described above.

γtcPNA-155: serine gamma tail-clamp anti-miR-155 PNA, RR-TJJJJ-OOO-ACCCCTATCACGATTAGCATTAA-RR, SEQ ID NO: 3 (all peptide nucleic acid (PNA); serine gamma PNA, tail-clamp TJJJJ via linkers, Arg-Arg at both ends)
decrease in miR-155 gene expression (miR-155): 63%
upregulation of miR-155 associated tumor suppressor genes [1]: significant upregulation
Caspase-3 positive cells in tumor sections (U2932 tumors): increase
Ki67 positive cells in tumor sections (U2932 tumors): significant decrease
upregulation of tumor suppressor genes in tumors (miR-155 downstream genes; intratumoral): significant upregulation
decrease in MCL1 mRNA levels in tumors (miR-155 downstream genes; total 3 mg kg-1, compared to PNA-155 treated group): ~50%
increase in Caspase-3 protein levels in tumors (miR-155 downstream genes; versus Scr-γtcPNA-155-treated tumors): 23%
Mcl-1 protein level in tumors (miR-155 downstream genes; western blot): reduction in the protein levels
